Measurements from PubChem BioAssay (NCI).
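96-well plates; 48 h exposure; 5 concentrations. Endpoints by linear interpolation between flanking doses. Not reached: highest tested concentration assigned. GI50: concentration for 50% inhibition of growth. Definition used: TGI = concentration required for complete inhibition of growth.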

Assays:
Experiment in all cases: NCI-60 cell line screen, 48 h
SR leukemia = tested on: SR leukemia
PC-3 prostate = tested on: PC-3 prostate
UACC-257 melanoma = tested on: UACC-257 melanoma
HL-60(TB) leukemia = tested on: HL-60(TB) leukemia
BT-549 breast = tested on: BT-549 breast
U251 CNS = tested on: U251 CNS
MDA-MB-231 breast = tested on: MDA-MB-231 breast
SK-MEL-28 melanoma = tested on: SK-MEL-28 melanoma
EKVX NSCLC = tested on: EKVX NSCLC
HCC-2998 colon = tested on: HCC-2998 colon
SK-MEL-2 melanoma = tested on: SK-MEL-2 melanoma
IGROV1 ovarian = tested on: IGROV1 ovarian
LOX IMVI melanoma = tested on: LOX IMVI melanoma
SNB-19 CNS = tested on: SNB-19 CNS
OVCAR-4 ovarian = tested on: OVCAR-4 ovarian
RXF 393 renal = tested on: RXF 393 renal
T-47D breast = tested on: T-47D breast
SW-620 colon = tested on: SW-620 colon
SF-539 CNS = tested on: SF-539 CNS
ACHN renal = tested on: ACHN renal
NCI-H23 lung = tested on: NCI-H23 lung
SK-OV-3 ovarian = tested on: SK-OV-3 ovarian
MOLT-4 leukemia = tested on: MOLT-4 leukemia
NCI/ADR-RES ovarian = tested on: NCI/ADR-RES ovarian
TK-10 renal = tested on: TK-10 renal
OVCAR-3 ovarian = tested on: OVCAR-3 ovarian
SF-268 CNS = tested on: SF-268 CNS
HT29 colon = tested on: HT29 colon
HCT-116 colon = tested on: HCT-116 colon
A498 renal = tested on: A498 renal
SNB-75 CNS = tested on: SNB-75 CNS
A549 NSCLC = tested on: A549 NSCLC
UACC-62 melanoma = tested on: UACC-62 melanoma
CCRF-CEM leukemia = tested on: CCRF-CEM leukemia
UO-31 renal = tested on: UO-31 renal
DU-145 prostate = tested on: DU-145 prostate
SF-295 CNS = tested on: SF-295 CNS
NCI-H522 lung = tested on: NCI-H522 lung
MALME-3M melanoma = tested on: MALME-3M melanoma
HOP-92 NSCLC = tested on: HOP-92 NSCLC
786-0 renal = tested on: 786-0 renal
NCI-H460 lung = tested on: NCI-H460 lung
SN12C renal = tested on: SN12C renal
HCT-15 colon = tested on: HCT-15 colon
HS 578T breast = tested on: HS 578T breast
SK-MEL-5 melanoma = tested on: SK-MEL-5 melanoma
MCF7 breast = tested on: MCF7 breast
KM12 colon = tested on: KM12 colon
COLO 205 colon = tested on: COLO 205 colon
RPMI-8226 leukemia = tested on: RPMI-8226 leukemia
MDA-MB-435 = tested on: MDA-MB-435
OVCAR-5 ovarian = tested on: OVCAR-5 ovarian
NCI-H226 lung = tested on: NCI-H226 lung
HOP-62 NSCLC = tested on: HOP-62 NSCLC
K-562 leukemia = tested on: K-562 leukemia
M14 melanoma = tested on: M14 melanoma
OVCAR-8 ovarian = tested on: OVCAR-8 ovarian
CAKI-1 renal = tested on: CAKI-1 renal
MDA-N = tested on: MDA-N

N#CSc1c[nH]c2cccc(/C=C/C(=O)/C=C(/C=C/c3cccc4[nH]cc(SC#N)c34)OB(F)F)c12
GI50 (SR leukemia): 345 nM
TGI (SR leukemia): > 100000 nM
GI50 (PC-3 prostate): 419 nM
TGI (PC-3 prostate): 4190 nM
GI50 (UACC-257 melanoma): 1980 nM
TGI (UACC-257 melanoma): 10900 nM
GI50 (HL-60(TB) leukemia): 293 nM
TGI (HL-60(TB) leukemia): 5250 nM
GI50 (BT-549 breast): 1260 nM
TGI (BT-549 breast): 3860 nM
GI50 (U251 CNS): 366 nM
TGI (U251 CNS): 4250 nM
GI50 (MDA-MB-231 breast): 442 nM
TGI (MDA-MB-231 breast): 1570 nM
GI50 (SK-MEL-28 melanoma): 342 nM
TGI (SK-MEL-28 melanoma): 1490 nM
GI50 (EKVX NSCLC): 916 nM
TGI (EKVX NSCLC): 5810 nM
GI50 (HCC-2998 colon): 2590 nM
TGI (HCC-2998 colon): 6890 nM
GI50 (SK-MEL-2 melanoma): 2400 nM
TGI (SK-MEL-2 melanoma): 5900 nM
GI50 (IGROV1 ovarian): 448 nM
TGI (IGROV1 ovarian): 4360 nM
GI50 (LOX IMVI melanoma): 243 nM
TGI (LOX IMVI melanoma): 677 nM
GI50 (SNB-19 CNS): 2330 nM
TGI (SNB-19 CNS): 14700 nM
GI50 (OVCAR-4 ovarian): 338 nM
TGI (OVCAR-4 ovarian): 3950 nM
GI50 (RXF 393 renal): 226 nM
TGI (RXF 393 renal): 516 nM
GI50 (T-47D breast): 358 nM
TGI (T-47D breast): 6200 nM
GI50 (SW-620 colon): 351 nM
TGI (SW-620 colon): 1330 nM
GI50 (SF-539 CNS): 1180 nM
TGI (SF-539 CNS): 4270 nM
GI50 (ACHN renal): 389 nM
TGI (ACHN renal): 1720 nM
GI50 (NCI-H23 lung): 755 nM
TGI (NCI-H23 lung): 3290 nM
GI50 (SK-OV-3 ovarian): 9740 nM
TGI (SK-OV-3 ovarian): 41500 nM
GI50 (MOLT-4 leukemia): 302 nM
TGI (MOLT-4 leukemia): 3140 nM
GI50 (NCI/ADR-RES ovarian): 4300 nM
TGI (NCI/ADR-RES ovarian): > 100000 nM
GI50 (TK-10 renal): 961 nM
TGI (TK-10 renal): 5940 nM
GI50 (OVCAR-3 ovarian): 243 nM
TGI (OVCAR-3 ovarian): 586 nM
GI50 (SF-268 CNS): 1070 nM
TGI (SF-268 CNS): 6440 nM
GI50 (HT29 colon): 386 nM
TGI (HT29 colon): 2260 nM
GI50 (HCT-116 colon): 244 nM
TGI (HCT-116 colon): 742 nM
GI50 (A498 renal): 2010 nM
TGI (A498 renal): 6970 nM
GI50 (SNB-75 CNS): 2180 nM
TGI (SNB-75 CNS): 7550 nM
GI50 (A549 NSCLC): 991 nM
TGI (A549 NSCLC): 10200 nM
GI50 (UACC-62 melanoma): 628 nM
TGI (UACC-62 melanoma): 2560 nM
GI50 (CCRF-CEM leukemia): 315 nM
TGI (CCRF-CEM leukemia): 17600 nM
GI50 (UO-31 renal): 391 nM
TGI (UO-31 renal): 1550 nM
GI50 (DU-145 prostate): 1100 nM
TGI (DU-145 prostate): 2630 nM
GI50 (SF-295 CNS): 2680 nM
TGI (SF-295 CNS): 9160 nM
GI50 (NCI-H522 lung): 207 nM
TGI (NCI-H522 lung): 501 nM
GI50 (MALME-3M melanoma): 272 nM
TGI (MALME-3M melanoma): 824 nM
GI50 (HOP-92 NSCLC): 309 nM
TGI (HOP-92 NSCLC): 1450 nM
GI50 (786-0 renal): 344 nM
TGI (786-0 renal): 2060 nM
GI50 (NCI-H460 lung): 1120 nM
TGI (NCI-H460 lung): 6130 nM
GI50 (SN12C renal): 495 nM
TGI (SN12C renal): 3720 nM
GI50 (HCT-15 colon): 315 nM
TGI (HCT-15 colon): 1490 nM
GI50 (HS 578T breast): 2170 nM
TGI (HS 578T breast): > 58600 nM
GI50 (SK-MEL-5 melanoma): 1230 nM
TGI (SK-MEL-5 melanoma): 2920 nM
GI50 (MCF7 breast): 459 nM
TGI (MCF7 breast): 3630 nM
GI50 (KM12 colon): 1040 nM
TGI (KM12 colon): 3980 nM
GI50 (COLO 205 colon): 293 nM
TGI (COLO 205 colon): 856 nM
GI50 (RPMI-8226 leukemia): 351 nM
TGI (RPMI-8226 leukemia): 30000 nM
GI50 (MDA-MB-435): 270 nM
TGI (MDA-MB-435): 869 nM
GI50 (OVCAR-5 ovarian): 1810 nM
TGI (OVCAR-5 ovarian): 6910 nM
GI50 (NCI-H226 lung): 2210 nM
TGI (NCI-H226 lung): 5900 nM
GI50 (HOP-62 NSCLC): 3160 nM
TGI (HOP-62 NSCLC): 17100 nM
GI50 (K-562 leukemia): 297 nM
TGI (K-562 leukemia): 1380 nM
GI50 (M14 melanoma): 558 nM
TGI (M14 melanoma): 3080 nM
GI50 (OVCAR-8 ovarian): 355 nM
TGI (OVCAR-8 ovarian): > 59500 nM
GI50 (CAKI-1 renal): 887 nM
TGI (CAKI-1 renal): 8620 nM

CN1C(=O)C2(Cc3cn(C45CC67SSC(CO)(C(=O)N6C4Nc4ccccc45)N(C)C7=O)c4ccccc34)SSC1(CO)C(=O)N2C (configuration not stated)
TGI (PC-3 prostate): 214 nM
TGI (UACC-257 melanoma): 1130 nM
TGI (HL-60(TB) leukemia): > 100000 nM
TGI (MDA-MB-231 breast): 49.4 nM
TGI (SK-MEL-28 melanoma): 505 nM
TGI (EKVX NSCLC): 166 nM
TGI (HCC-2998 colon): 136 nM
TGI (SK-MEL-2 melanoma): 288 nM
TGI (IGROV1 ovarian): 107 nM
TGI (OVCAR-4 ovarian): 23.4 nM
TGI (MDA-N): 66.1 nM
TGI (SW-620 colon): > 100000 nM
TGI (SF-539 CNS): 73.8 nM
TGI (ACHN renal): 77.6 nM
TGI (SK-OV-3 ovarian): 1560 nM
TGI (MOLT-4 leukemia): 1080 nM
TGI (TK-10 renal): 103 nM
TGI (OVCAR-3 ovarian): 215 nM
TGI (SF-268 CNS): 265 nM
TGI (HT29 colon): 16.4 nM
TGI (HCT-116 colon): 115 nM
TGI (SNB-75 CNS): 345 nM
TGI (UACC-62 melanoma): 324 nM
TGI (CCRF-CEM leukemia): > 100000 nM
TGI (UO-31 renal): 179 nM
TGI (DU-145 prostate): 173 nM
TGI (SF-295 CNS): 1340 nM
TGI (NCI-H522 lung): 13.7 nM
TGI (HOP-92 NSCLC): 771 nM
TGI (786-0 renal): 28.3 nM
TGI (NCI-H460 lung): 778 nM
TGI (SN12C renal): 69.6 nM
TGI (MCF7 breast): 259 nM
TGI (KM12 colon): 577 nM
TGI (RPMI-8226 leukemia): > 100000 nM
TGI (OVCAR-5 ovarian): 289 nM
TGI (HOP-62 NSCLC): 277 nM
TGI (K-562 leukemia): > 100000 nM
TGI (M14 melanoma): 29.8 nM
TGI (OVCAR-8 ovarian): 202 nM

CC(C)(C)[Si](C)(C)OCC1OC(n2cnc3c(N)ncnc32)C(O[Si](C)(C)C(C)(C)C)C1O[Si](C)(C)C(C)(C)C (configuration not stated)
TGI (SR leukemia): 86700 nM
TGI (PC-3 prostate): 30000 nM
TGI (UACC-257 melanoma): > 100000 nM
TGI (MDA-MB-231 breast): 54100 nM
TGI (EKVX NSCLC): 64700 nM
TGI (SK-MEL-2 melanoma): 49400 nM
TGI (IGROV1 ovarian): > 100000 nM
TGI (LOX IMVI melanoma): 39200 nM
TGI (T-47D breast): 46400 nM
TGI (MDA-N): > 100000 nM
TGI (SW-620 colon): > 100000 nM
TGI (ACHN renal): 27200 nM
TGI (MOLT-4 leukemia): 12800 nM
TGI (NCI/ADR-RES ovarian): > 100000 nM
TGI (OVCAR-3 ovarian): 13800 nM
TGI (SF-268 CNS): 56500 nM
TGI (HT29 colon): > 100000 nM
TGI (HCT-116 colon): 22400 nM
TGI (SNB-75 CNS): 27600 nM
TGI (A549 NSCLC): 48500 nM
TGI (UACC-62 melanoma): 51600 nM
TGI (DU-145 prostate): > 100000 nM
TGI (SF-295 CNS): 62300 nM
TGI (NCI-H522 lung): 21300 nM
TGI (MALME-3M melanoma): > 100000 nM
TGI (HOP-92 NSCLC): > 100000 nM
TGI (786-0 renal): 18600 nM
TGI (NCI-H460 lung): 27300 nM
TGI (SN12C renal): 34900 nM
TGI (HCT-15 colon): > 100000 nM
TGI (HS 578T breast): 58500 nM
TGI (SK-MEL-5 melanoma): 14400 nM
TGI (COLO 205 colon): > 100000 nM
TGI (HOP-62 NSCLC): 46000 nM
TGI (M14 melanoma): 67400 nM
TGI (OVCAR-8 ovarian): 42000 nM
